Results published in patent US20140161769A1, “METHODS FOR TREATING INFLAMMATORY AUTOIMMUNE DISORDERS” (Beth Israel Deaconess Medical Center, Inc., priority 2010, published 2014).

Assays:
MRL/lpr mice = test: Treatment of MRL/lpr mice with KN-93 (lupus nephritis; urine and kidney histopathology); format: in vivo, mouse
Method: FIG. 7A is a graph showing the weekly quantification of urinary protein and leukocytes of pre-disease 8-week-old MRL/lpr mice treated with either KN-93 (40 mg/kg) or PBS. The agent was administered by intraperitoneal injections three times a week, every other week, during an 8-week time period. The arrows indicate the administration of the treatment. FIG. 7B is a graph showing the weekly quantification of urinary protein and leukocytes of diseased 12-week-old MRL/lpr mice (n≧5 mice per group) treated with KN-93 or PBS. Treatment was administered three times a week during a 5-week time period. FIG. 7C is a series of representative images of glomerular, tubule-interstitial, and perivascular areas from 16-week-old MRL/lpr mice treated with PBS (upper panels) and KN-93 (stained with Periodic Acid Schiff). The photographs from the middle panels correspond to mice treated before the onset of proteinuria (8 week-old). The lower panels correspond to mice treated after the disease had been established. The magnification is ×40 (glomerular), ×10 (tubular), and ×20 (perivascular).
We recorded proteinuria and pyuria in CaMKIV-deficient and sufficient MRL/lpr mice from the 6th to the 24th week of age. The mice in each group were placed overnight in a Nalgene metabolic cage to collect urine. Urine was measured with Multistix 10SG reagent strips and analyzed by a Clinitek Status analyzer (Bayer Healthcare). Proteinuria increased to 3 g/L in MRL/lpr mice at the age of 14 weeks and remained at the same level thereafter. However, in MRL/lprCaMKIV−/− mice, proteinuria remained at 1 g/L throughout the observation period. The number of leukocytes in the urine increased to 500 μl at week 14 in MRL/lpr mice, whereas it remained less than 15 μl in MRL/lprCaMKIV−/− mice (FIG. 4A).
To rule out such possibility, we used KN-93, a well-known CaMKIV inhibitor (Tsung et al., J Exp Med. 204: 2913-2923, 2007; Sato et al., Nat Med. 12: 1410-1416, 2006; and Ilario et al., Blood 111: 723-731, 2008), to treat MRL/lpr mice and determine its effect on the expression of lupus nephritis. The agent was administered by intraperitoneal injections at a dose of 0.08 mg/mouse, three times a week. We treated MRL/lpr mice with PBS (control) or KN-93 either every other week from week 8 to week 16 (disease prevention) (FIG. 7A) or weekly from week 12 to week 16 (disease treatment) (FIG. 7B).
In the disease prevention experiment, KN-93 administration was started either before the onset of proteinuria, when the mice were 8 weeks old. These mice received the agent every other week. In the disease treatment experiment, the effectiveness of KN-93 in established disease was evaluated. KN-93 administration was started when mice were 12 weeks old and continued three times a week during 5 weeks. Mice of both experiments were sacrificed at the end of their 16th week of age.

[1] = test system: Splenocytes isolated from MRL/lpr mice; test: CD86 expression on CD19 positive B cells of MRL/lpr splenocytes (flow cytometry); format: cell-based, mouse; settings: KN-93 (10 μM)
Method: Splenocytes were isolated from MRL/lpr mice and stimulated with LPS (1 μg/ml) or PBS for 24 hours. FIGS. 10A and 10C are bar graphs showing the expression of CD86 in LPS-stimulated cells (FIG. 10A) and unstimulated cells (FIG. 10C). A Kruskal-Wallis test was used for statistical analyses. Results are expressed as mean+SD CP=0.01; n=three 24-week-old mice per group). FIGS. 10B and 10D are representative histograms comparing CD86 expression on LPS-stimulated (FIG. 10B) and unstimulated splenocytes (FIG. 10D). Splenocytes were treated with KN-93 (10 μM) (right panel) or PBS (left panel) for 24 hours. Shaded areas represent isotype control staining.
We wished to determine whether CaMKIV deficiency suppresses CD86 expression in all types of antigen presenting cells (APC). Splenocytes were isolated from MRL/lpr and MRL/lprCaMKIV−/− mice and stimulated with LPS (1 μg/ml) or PBS for 24 hours. We stained cells with fluorochrome-conjugated antibodies against the major histocompatibility complex (MHC) class II (eBioscience) (all APCs), CD19 (B cells), CD11c (dendritic cells), and F4/80 (macrophages) (BioLegend). […]
Splenocytes isolated from MRL/lpr mice were stimulated with LPS (1 μg/ml) or PBS for 24 hours in the presence or absence of KN-93. CD19 positive B cells were analyzed for the expression of CD86. […]

Normal human T cells = test: IFN-γ production and CD69 expression in normal human T cells; format: cell-based
Method: (§1) FIG. 15A is a bar graph showing IFN-γ levels in supernatants from human T cells incubated with PBS or CD3/28 and treated with either PBS (white bars) or with KN-93 (black bars). FIG. 15B are histograms comparing CD69 expression in human T cells incubated with PBS (left) or with CD3/28 (right). Data are shown for control (gray), treatment with PBS (dotted line), and treatment with KN-93 (solid line). FIG. 15C is a series of bar graphs showing […] (left), IL-6 (middle), and TNF-α(right) levels in supernatants from macrophages incubated with PBS or LPS and treated with either PBS (white bars) or with KN-93 (black bars). Normal human T cells and macrophages were treated with PBS (control) or KN-93. […] Furthermore, the activity of IL-6 in murine mesangial cells decreases in the absence of CaMKIV. Taken together, inhibition of CaMKIV by KN-93 or absence of CaMKIV (e.g., by genetic deficiency) decreases the expression of various pro-inflammatory cytokines, and inhibitors of CaMKIV could be used to treat disorders associated with one or more of such cytokines (e.g., autoimmune disorders).

macrophages = test: Cytokine production in normal human macrophages; format: cell-based; settings: supernatants from macrophages incubated with PBS or LPS, KN-93 vs PBS
Method: as §1

primary mesangial cells [2] = test: Mesangial cell proliferation (cell cycle analysis, flow cytometry); format: cell-based, mouse
Method: FIG. 16A is a series of histograms in unstimulated cells (left) and cells stimulated with PDGF (right). FIG. 16B is a series of immunoblots of protein extracts obtained from murine mesangial cells and immunoblotted with anti-CDK2 or anti-cyclin D1 antibodies. After isolation from MRL/MPJ or MRL/lpr mice, these cells were untreated, treated with KN-93, treated with PDGF, or treated with both KN-93 and PDGF. Briefly, four hundred thousand primary mesangial cells were incubated in 2 mL of RPMI 1640 with 10% FBS. Cells were plated in 6-well plates and made quiescent by serum starvation for 24 hours. Then, cells were treated with 20 ng/ml of PDGF-BB (PeproTech, Inc. Rocky Hill, N.J.) for 24 hours. In some experiments, cells were pretreated with KN-93 (20 μM) for 48 hours before the addition of PDGF-BB. For cell cycle analysis, mesangial cells were harvested with trypsin, washed twice with PBS, fixed in cold 95% ethanol, and stored at 4° C. until use. Before flow cytometric analysis, cells were washed with PBS and centrifuged, and the cell pellets were resuspended in a solution of RNAse (0.5 mg/ml) in PBS and incubate at 37° C. for 20 minutes. Then, propidium iodide (PI) (40 μg/ml) was added in PBS for 30 minutes. Stained cells were analyzed with a flow cytometer (model FACS Scan; BD Bioscience, Franklin Lakes, N.J.). […]

primary mesangial cells [3] = test: Western blot of CDK2 and cyclin D1 in mesangial cells; format: cell-based, mouse; settings: mesangial cells from MRL/MPJ or MRL/lpr mice, immunoblot
Method: FIG. 16A is a series of histograms in unstimulated cells (left) and cells stimulated with PDGF (right). FIG. 16B is a series of immunoblots of protein extracts obtained from murine mesangial cells and immunoblotted with anti-CDK2 or anti-cyclin D1 antibodies. After isolation from MRL/MPJ or MRL/lpr mice, these cells were untreated, treated with KN-93, treated with PDGF, or treated with both KN-93 and PDGF. Briefly, four hundred thousand primary mesangial cells were incubated in 2 mL of RPMI 1640 with 10% FBS. Cells were plated in 6-well plates and made quiescent by serum starvation for 24 hours. Then, cells were treated with 20 ng/ml of PDGF-BB (PeproTech, Inc. Rocky Hill, N.J.) for 24 hours. In some experiments, cells were pretreated with KN-93 (20 μM) for 48 hours before the addition of PDGF-BB. For Western blot analysis, mesangial cells were homogenized in radioimmunoprecipitation assay (RIPA) buffer at 4° C. After centrifugation at 14,000 rpm for 30 min at 4° C., supernatant was collected and stored at −80° C. until use. The following antibodies were used for immunoblot assay: rabbit anti-CDK2, rabbit anti-cyclin D1 (Cell signaling) and rabbit anti-actin (Sigma).

[4] = kidneys of KN-93 treated MRL/lpr mice

## COc1ccc(S(=O)(=O)N(CCO)c2ccccc2CN(C)CC=Cc2ccc(Cl)cc2)cc1 [KN-93, N-[2-[[[3-(4-chlorophenyl)-2-propenyl]methylamino]methyl]phenyl]-N-(2-hydroxyethyl)-4-methoxybenzenesulphonamide]
MRL/lpr mice; 16-week-old MRL/lpr mice, KN-93 vs PBS
  kidney pathology, determined histopathologically: less kidney pathology
MRL/lpr mice; MRL/lpr mice, KN-93 i.p. 0.08 mg/mouse three times a week, both schemes (every other week, weeks 8-16; weekly, weeks 12-16), PBS-treated mice 3 g/L
  protein in the urine (proteinuria): less than 1 g/L
MRL/lpr mice; MRL/lpr mice, KN-93 i.p. 0.08 mg/mouse three times a week, both schemes, PBS-treated mice 500 leukocytes/μl
  leukocytes in the urine (pyuria): < 125 leukocytes/μl
MRL/lpr mice; [4]
  glomerular crescents: did not have any glomerular crescents
  glomerular damage, interstitial, and perivascular inflammatory cell infiltration: limited
[1]; LPS (1 μg/ml) 24 hours
  expression of CD86 on stimulated cells: suppressed
[1]; PBS 24 hours
  expression of CD86 in non-LPS stimulated cells: trend towards lower expression
Normal human T cells; normal human T cells, KN-93 vs PBS
  expression of CD69 on T cells: decreased expression
Normal human T cells; supernatants from human T cells incubated with PBS or CD3/28, KN-93 vs PBS
  production of IFN-γ: decreased production
macrophages
  production of IL-1β: decreased production
  production of IL-6: decreased production
  production of TNF-α: decreased production
Primary mesangial cells [2]; with PDGF stimulation (20 ng/ml PDGF-BB 24 hours), pretreated with KN-93 (20 μM) 48 hours
  mesangial cell proliferation: suppressed
Primary mesangial cells [2]; without PDGF stimulation, KN-93 (20 μM) 48 hours
  mesangial cell proliferation: suppressed
Primary mesangial cells [3]
  presence of CD-K2: decreased
  presence of cyclin D1: decreased
